In ChEMBL document CHEMBL3243925, “Disteroidyl ethers. 1. Synthesis and oral long-lasting uterotrophic activity of 1,3,5(10)-estratrien-17-yl enol ethers of 3-keto steroids” (1977):
The source made the active and inactive calls. No cut-off for these calls is given here.

What was measured:
Rattus norvegicus [1] = test: Uterotrophic activity in spayed Wistar rat assessed as autopsies by measuring uterus weight at 0.1 umol, po after 2 weeks (reference value: 15.9 +/- 0.50 mg); assay type: functional
Rattus norvegicus [2] = test: Uterotrophic activity in spayed Wistar rat assessed as autopsies by measuring uterus weight at 0.1 umol, po after 1 week (reference value: 15.1 +/- 0.51 mg); assay type: functional

SMILES | Activity (Rattus norvegicus [1]) | Activity (Rattus norvegicus [2])
C#C[C@]1(O)CC[C@H]2[C@@H]3CC=C4C=C(O[C@H]5CC[C@H]6[C@@H]7CCc8cc(O)ccc8[C@H]7CC[C@]56C)CC[C@@H]4[C@H]3CC[C@@]21C | 23.3 mg | 40.5 mg
C[C@]12CC[C@@H]3c4ccc(OC5CCCC5)cc4CC[C@H]3[C@@H]1CC[C@@H]2OC1=CC2=CC[C@@H]3[C@H](CC[C@]4(C)[C@@H](O)CC[C@@H]34)[C@H]2CC1 | 27.1 mg | 35.8 mg
CCC(=O)O[C@H]1CC[C@H]2[C@@H]3CC=C4C=C(O[C@H]5CC[C@H]6[C@@H]7CCc8cc(OC(=O)c9ccccc9)ccc8[C@H]7CC[C@]56C)CC[C@]4(C)[C@H]3CC[C@]12C | 31 mg | 49.4 mg
C#C[C@]1(OC(=O)CCCCCC)CC[C@H]2[C@@H]3CC=C4C=C(O[C@H]5CC[C@H]6[C@@H]7CCc8cc(OC(=O)C(C)C)ccc8[C@H]7CC[C@]56C)CC[C@@H]4[C@H]3CC[C@@]21C | 30.4 mg | 37.2 mg
C[C@]12CC[C@@H]3c4ccc(O)cc4CC[C@H]3[C@@H]1CC[C@@H]2OC1=CC2=CC[C@@H]3[C@H](CC[C@@]4(C)[C@H]3CC[C@]4(C)O)[C@@]2(C)CC1 | 33.5 mg | 48.1 mg
C#C[C@]1(OC(=O)CCCCCC)CC[C@H]2[C@@H]3CC=C4C=C(O[C@H]5CC[C@H]6[C@@H]7CCc8cc(O)ccc8[C@H]7CC[C@]56C)CC[C@@H]4[C@H]3CC[C@@]21C | 22.1 mg | 33.8 mg
CC(=O)O[C@H]1CC[C@H]2[C@@H]3CC=C4C=C(O[C@H]5CC[C@H]6[C@@H]7CCc8cc(OC(=O)c9ccccc9)ccc8[C@H]7CC[C@]56C)CC[C@@H]4[C@H]3CC[C@]12C | 31.6 mg | 48 mg
C[C@]12CC[C@@H]3c4ccc(OC(=O)c5ccccc5)cc4CC[C@H]3[C@@H]1CC[C@@H]2OC1=CC2=CC[C@@H]3[C@H](CC[C@]4(C)C(=O)CC[C@@H]34)[C@@]2(C)CC1 | 31.6 mg | 53 mg
C[C@]12CC[C@@H]3c4ccc(O)cc4CC[C@H]3[C@@H]1CC[C@@H]2OC1=CC2=CC[C@@H]3[C@H](CC[C@]4(C)C(=O)CC[C@@H]34)[C@@]2(C)CC1 | 38.9 mg | 56.9 mg
CC(=O)O[C@]1(C(C)=O)CC[C@H]2[C@@H]3CC(C)=C4C=C(O[C@H]5CC[C@H]6[C@@H]7CCc8cc(OC(=O)c9ccccc9)ccc8[C@H]7CC[C@]56C)CC[C@]4(C)[C@H]3CC[C@@]21C | 21.9 mg | 26.6 mg
CCC(=O)O[C@H]1CC[C@H]2[C@@H]3CC[C@H]4CC(O[C@H]5CC[C@H]6[C@@H]7CCc8cc(OC(=O)c9ccccc9)ccc8[C@H]7CC[C@]56C)=CC[C@]4(C)[C@H]3CC[C@]12C | 21.3 mg | 23.3 mg
C#C[C@]1(O)CC[C@H]2[C@@H]3CCc4cc(OC5CCCC5)ccc4[C@H]3CC[C@@]21C [QUINESTROL] | 29 mg | 39 mg
C#C[C@]1(OC(C)=O)CC[C@H]2[C@@H]3CC=C4C=C(O[C@H]5CC[C@H]6[C@@H]7CCc8cc(OC(C)OCC)ccc8[C@H]7CC[C@]56C)CC[C@@H]4[C@H]3CC[C@@]21C (stereo not given in full) | 19.3 mg | 30.3 mg
C#C[C@]1(OC(C)=O)CC[C@H]2[C@@H]3CC=C4C=C(O[C@H]5CC[C@H]6[C@@H]7CCc8ccccc8[C@H]7CC[C@]56C)CC[C@@H]4[C@H]3CC[C@@]21C | inactive | inactive
C[C@]12CC[C@H]3[C@@H](CC=C4C=C(O[C@H]5CC[C@H]6[C@@H]7CCc8cc(OC(=O)c9ccccc9)ccc8[C@H]7CC[C@]56C)CC[C@@H]43)[C@@H]1CC[C@@H]2OC(=O)c1ccccc1 | 18.1 mg | 31.3 mg
CC(=O)O[C@]1(C(C)=O)CC[C@H]2[C@@H]3CC=C4C=C(O[C@H]5CC[C@H]6[C@@H]7CCc8cc(OC(=O)c9ccccc9)ccc8[C@H]7CC[C@]56C)CC[C@]4(C)[C@H]3CC[C@@]21C | 23.3 mg | 27.5 mg
CC(=O)O[C@@]1(C)CC[C@H]2[C@@H]3CC=C4C=C(O[C@H]5CC[C@H]6[C@@H]7CCc8cc(OC(=O)c9ccccc9)ccc8[C@H]7CC[C@]56C)CC[C@]4(C)[C@H]3CC[C@@]21C | 21.5 mg | 26.4 mg
C#C[C@]1(OC(=O)CCCCCC)CC[C@H]2[C@@H]3CC=C4C=C(O[C@H]5CC[C@H]6[C@@H]7CCc8cc(OC)ccc8[C@H]7CC[C@]56C)CC[C@@H]4[C@H]3CC[C@@]21C | 15.4 mg | 18.2 mg

SMILES | Activity (Rattus norvegicus [1]) | Activity (Rattus norvegicus [2])
C#C[C@]1(O)CC[C@H]2[C@@H]3CC=C4C=C(O[C@H]5CC[C@H]6[C@@H]7CCc8cc(OC(C)=O)ccc8[C@H]7CC[C@]56C)CC[C@@H]4[C@H]3CC[C@@]21C | 32.7 mg | 39.2 mg
CC(=O)[C@H]1CC[C@H]2[C@@H]3CC=C4C=C(O[C@H]5CC[C@H]6[C@@H]7CCc8cc(OC(=O)c9ccccc9)ccc8[C@H]7CC[C@]56C)CC[C@]4(C)[C@H]3CC[C@]12C | 20.6 mg | 26.3 mg
CC(=O)[C@H]1CC[C@H]2[C@@H]3CC=C4C=C(O[C@H]5CC[C@H]6[C@@H]7CCc8cc(OC(=O)c9ccccc9)ccc8[C@H]7CC[C@]56C)CC[C@@H]4[C@H]3CC[C@]12C | 28.5 mg | 29.1 mg
C#C[C@]1(OC(=O)CCCCCC)CC[C@H]2[C@@H]3CC=C4C=C(O[C@H]5CC[C@H]6[C@@H]7CCc8cc(OC(=O)c9ccccc9)ccc8[C@H]7CC[C@]56C)CC[C@@H]4[C@H]3CC[C@@]21C | 24.2 mg | 35.6 mg
C#C[C@]1(O)CC[C@H]2[C@@H]3CCc4cc(O)ccc4[C@H]3CC[C@@]21C [ETHINYL ESTRADIOL] | 20.5 mg | 22.5 mg
C#C[C@]1(OC(C)=O)CC[C@H]2[C@@H]3CC=C4C=C(O[C@H]5CC[C@H]6[C@@H]7CCc8cc(OC(=O)CCCCCC)ccc8[C@H]7CC[C@]56C)CC[C@@H]4[C@H]3CC[C@@]21C | 18.9 mg | 29.5 mg
C#C[C@]1(OC(C)=O)CC[C@H]2[C@@H]3CC=C4C=C(O[C@H]5CC[C@H]6[C@@H]7CCc8cc(OC(=O)CCC)ccc8[C@H]7CC[C@]56C)CC[C@@H]4[C@H]3CC[C@@]21C | 18.3 mg | 26.5 mg
C#C[C@]1(OC(=O)CCCCCC)CC[C@H]2[C@@H]3CC=C4C=C(O[C@H]5CC[C@H]6[C@@H]7CCc8cc(OC(C)=O)ccc8[C@H]7CC[C@]56C)CC[C@@H]4[C@H]3CC[C@@]21C | 28.7 mg | 31.7 mg
C#C[C@@]1(O)CC[C@H]2[C@@H]3CC=C4C=C(O[C@H]5CC[C@H]6[C@@H]7CCc8cc(O)ccc8[C@H]7CC[C@]56C)CC[C@@H]4[C@H]3CC[C@@]21C | inactive | inactive
C[C@]12CC[C@@H]3c4ccc(OC5CCCC5)cc4CC[C@H]3[C@@H]1CC[C@@H]2OC1=CC2=CC[C@@H]3[C@H](CC[C@]4(C)C(=O)CC[C@@H]34)[C@H]2CC1 | 26.2 mg | 29.1 mg
CCC(=O)O[C@H]1CC[C@H]2[C@@H]3CC[C@@H]4C=C(O[C@H]5CC[C@H]6[C@@H]7CCc8cc(OC(=O)c9ccccc9)ccc8[C@H]7CC[C@]56C)CC[C@]4(C)[C@H]3CC[C@]12C | 19.9 mg | 21.2 mg
C#C[C@@]1(OC(C)=O)CC[C@H]2[C@@H]3CC=C4C=C(O[C@H]5CC[C@H]6[C@@H]7CCc8cc(OC(=O)c9ccccc9)ccc8[C@H]7CC[C@]56C)CC[C@@H]4[C@H]3CC[C@@]21C | inactive | inactive
CCC(=O)O[C@H]1CC[C@H]2[C@@H]3CC[C@@H]4CC(O[C@H]5CC[C@H]6[C@@H]7CCc8cc(OC(=O)c9ccccc9)ccc8[C@H]7CC[C@]56C)CC[C@]4(C)[C@H]3CC[C@]12C (stereo not given in full) | inactive | inactive
CC(=O)[C@@H]1CC[C@H]2[C@@H]3CC=C4C=C(O[C@H]5CC[C@H]6[C@@H]7CCc8cc(OC(=O)c9ccccc9)ccc8[C@H]7CC[C@]56C)CC[C@@H]4[C@H]3CC[C@]12C | inactive | inactive
C[C@]12CC[C@@H]3c4ccc(O)cc4CC[C@H]3[C@@H]1CC[C@@H]2OC1=CC2=CC[C@@H]3[C@H](CC[C@]4(C)C(=O)CC[C@@H]34)[C@H]2CC1 | 43.6 mg | 71.7 mg
C#C[C@]1(OC(C)=O)CC[C@H]2[C@@H]3CC=C4C=C(O[C@H]5CC[C@H]6[C@@H]7CCc8cc(OC(=O)c9ccccc9)ccc8[C@H]7CC[C@]56C)CC[C@@H]4[C@H]3CC[C@@]21C | 21.4 mg | 25.6 mg
C#C[C@]1(OC(=O)C(C)OCC)CC[C@H]2[C@@H]3CC=C4C=C(O[C@H]5CC[C@H]6[C@@H]7CCc8cc(OC(C)OCC)ccc8[C@H]7CC[C@]56C)CC[C@@H]4[C@H]3CC[C@@]21C (stereo not given in full) | 18 mg | 23.6 mg
